Patent US6479549B2, “Carnosic acid derivatives for promoting synthesis of nerve growth factor” (Nagase & Company, Ltd., priority 2000, dated 2002)

Key:
[1] = test system: Human glioblastoma cells (T98G cell line); test: NGF content in culture supernatant of T98G cells (sandwich enzyme immunoassay); format: cell-based; details: for NGF Content in sample solution: 100 uM effective ingredient in Opti-MEM medium, T98G cells, 4 days cultivation, mean ± standard deviation, comparative example (none) 6.3 ± 1.2; for Relative NGF content: 100 uM, ratio of NGF content in example solution to that in comparative example solution (=1.0)
Procedure: Human glioblastoma cells (T98G cell line) were seeded in a MEM medium containing fetal bovine serum (10%; Gibco), sodium pyruvate (x 1; Gibco) and nonessential amino acids (x 1; Gibco) in wells of a flat-bottom 96-well plate (Corning), in a cell density of 2×10^4/well, and cultivated in a CO2 incubator (37° C., 5% CO2) for 3 days. The medium was then replaced by an Opti-MEM medium (containing 5 mg/ml of bovine serum albumin). The cultivation was continued for further 6 days with replacing the medium at intervals of 3 days.
After removing the medium, an Opti-MEM medium (containing 5 mg/ml of bovine serum albumin) containing 100 uM (micromole) of carnosic acid diacetate obtained in Example 1 was added to each well in an amount of 50 ul (microliter)/well, and the cultivation was continued for further 4 days. After the cultivation, the supernatant was taken as a sample solution.
On the other hand, 1 ug/ml of an anti-NGF antibody (Promega) solution (50 ul) was added to each well of a 96-well microplate (Nunc), and the plate was allowed to stand overnight at 4° C. After washing the plate with PBS(-) (Nissui Pharmaceuticals), 1% of a bovine serum albumin (Sigma) solution (100 ul) was added to each well of the plate and the plate was allowed to stand at room temperature for 4 hrs to block the plate. […]
Subsequently, 0.4 unit/ml of a beta-galactosidase-labeled anti-NGF antibody (Boehringer Mannheim) solution (50 ul) was added to each well of the plate, and allowed to react at room temperature for one hour. […] The fluorescence intensity of 4-methylumbelliferone produced was measured on a fluorescence plate reader, and the content of NGF contained in the sample solution was determined using a standard curve obtained from a standard solution (human beta-NGF; PEPRO TECH EC).
The content of NGF contained in the sample solution was determined as described in Example 4, except that an Opti-MEM medium (containing 5 mg/ml of bovine serum albumin) containing 100 uM of carnosic acid diacetate methyl ester obtained in Example 2 was used in an amount of 50 ul/well, instead of carnosic acid diacetate.
The content of NGF contained in the sample solution was determined as described in Example 4, except that an Opti-MEM medium (containing 5 mg/ml of bovine serum albumin) containing 100 uM of carnosic acid methyl ester obtained in Example 3 was used inan amount of 50 ul/well, instead of carnosic acid diacetate.
The content of NGF contained in the sample solution was determined as described in Example 4, except that an Opti-MEM medium (containing 5 mg/ml of bovine serum albumin) not containing carnosic acid diacetate was used in an amount of 50 ul/well, instead of the Opti-MEM medium containing carnosic acid diacetate.

Wistar male rats = test: Ethanol-induced stomach ulcers in rats (ulcer index); format: in vivo; details: 10 mg/kg body weight oral
Procedure: To Wistar male rats (5 rats per group) of 180-200 g body weight fasted for 24 hours before the start of a test, carnosic acid diacetate obtained in Example 1 was orally administered in a dose level of 10 mg per kg body weight, after suspending it in water. After 30 minutes of the administration, 1 ml of ethanol (99.5%) was orally administered to each rat. After one hour of the ethanol administration, laparotomy was carried out and the lengths of all ulcers developed in the stomach were measured arld added up. The total lengths of ulcers are taken as ulcer indexes.
The lengths of all ulcers developed in the stomach were measured and added up as described in Example 7, except that water containing carnosic acid methyl ester (10 mg per kg body weight) was used instead of water containing carnosic acid diacetate. The total lengths of ulcers are taken as ulcer indexes.
The lengths of all ulcers developed in the stomach were measured and added up as described in Example 7, except that water not containing carnosic acid diacetate was used instead of water containing carnosic acid diacetate. The total lengths of ulcers are taken as ulcer indexes.

| SMILES | NGF Content in sample solution [1] [pg/mL] | Relative NGF content [1] | Ulcer index (Wistar male rats; 30 minutes before 1 ml ethanol (99.5%) oral, total length of stomach ulcers 1 hour after ethanol, mean ± standard deviation, comparative example 62.4) [mm] | Relative ulcer index (Wistar male rats; ratio of ulcer index in example to that in comparative example 2 (=100)) |
| --- | --- | --- | --- | --- |
| COC(=O)[C@@]12CCCC(C)(C)[C@H]1CCc1cc(C(C)C)c(OC(C)=O)c(OC(C)=O)c12 [Carnosic acid diacetate methyl ester, carnosic acid diacetate methyl ester] | 50.6 ± 4.3 | 8.0 | – | – |
| COC(=O)[C@]12CCCC(C)(C)C1CCc1cc(C(C)C)c(O)c(O)c12 (stereo partly drawn) [Carnosic acid methyl ester, carnosic acid methyl ester] | 33.3 ± 2.8 | 5.3 | 33.6 ± 3.6 | 53.8 |
